Here are results for 89 compounds from PubChem BioAssay AID816 (SRMLSC, 2007).

Activity calls are given as the source filed them. How the calls were made is not given here. A value given as a limit tells only on which side of the number the result lay.

The test system of this experiment is S. cerevisiae GAL1 promoter reporter activation counterscreen. Put plainly: yeast Gal1p promoter activation – S. cerevisiae, artefact control for yeast lifespan extension project (AID 816).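 Further: yeast growth read after 24 h of incubation with compounds.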
Broadly, the EC50 is the concentration at which the effect is half-maximal. As for `CC(=O)Oc1ccccc1N1C(=O)c2ccc(C(=O)O)cc2C1=O`, the EC50 is > 40 µM (inactive). As to `CN1CCN(CC(=O)Nc2ccc(Cl)cc2Cl)CC1`, the EC50 is > 40 µM (inactive). For the compound `O=C(NC(=S)NNC(=O)c1ccccc1O)c1ccco1`, the EC50 is > 40 µM (inactive).

With `COCCCNC(CC(=O)Nc1ccc(OC)cc1OC)C(=O)O` (centres undefined), the EC50 is > 40 µM (inactive). For `CCCCn1c(NS(=O)(=O)c2ccc(C)cc2)c(C(=O)OCC)c2nc3ccccc3nc21`, the EC50 was > 40 µM (inactive).

For the compound `COC(=O)CC1=NN(c2ccccc2)C(=O)/C1=C\c1ccc(OC)cc1`, the EC50 was > 40 µM (inactive). With `CCc1[nH]nc2c1C(c1ccc(Br)s1)C(C#N)=C(N)O2` (centres undefined), the EC50 was > 40 µM (inactive). The result for `Cc1cc(C)n(-c2ccc(OCC(=O)O)nn2)n1` reads > 40 µM (inactive); that for `COc1cc(OC)cc(-c2nc3ccccc3c(=O)n2OC(=O)c2ccc(Br)cc2)c1`, > 40 µM (inactive); that for `CCOC(=O)Cc1csc(NC(=O)c2c(O)c3ccccc3n(CC(C)C)c2=O)n1`, > 40 µM (inactive). The value for `CC(=O)c1c(C)[nH]c(C(=O)OC2CCCCC2=O)c1C` (centres undefined) was > 40 µM (inactive); that for `Cc1ccc(/C=C2/C(=O)NC(=O)N(CCc3ccc(F)cc3)C2=O)o1` was > 40 µM (inactive); that for `Cc1cc(C)cc(CC2CC(=O)N(c3ccc(Cl)cn3)C2=O)c1` (centres undefined) was > 40 µM (inactive). The result for `CC(C)c1ccc(C2=C(O)c3ccccc3C(=O)C2=O)cc1` reads > 40 µM (inactive); that for `C=C(C(=O)c1ccccc1)C(CC(=O)c1ccccc1)c1ccccc1` (centres undefined), > 40 µM (inactive); that for `C/C(=N\NC(=O)c1ccccc1O)C1C(=O)c2ccccc2C1=O`, > 40 µM (inactive).

With `CCCC(=O)Nc1ccccc1Sc1ncnc2scc(-c3ccccc3)c12`, the EC50 was > 40 µM (inactive).

Turning to `O=C(c1ccc(F)cc1)C(CN1CCOCC1)c1ccccc1` (centres undefined), the EC50 was > 40 µM (inactive).

`CCn1c(=O)c2ccccc2n2c(SCC(=O)N3CCCc4ccccc43)nnc12`: the EC50 is > 40 µM (inactive). Consider `CCSc1nnc(NC(=O)C2(C)Cc3ccccc3C(=O)O2)s1` (centres undefined), for which the EC50 is > 40 µM (inactive).

Regarding `CC1(C)Oc2ccccc2OC1(O)c1ccc2ccccc2n1` (centres undefined), the EC50 is > 40 µM (inactive). The value for `COc1ccc(CN2C(=O)/C(=C/c3ccncc3)SC2=S)cc1` was > 40 µM (inactive); that for `O=c1c2[nH]c3ccccc3c2ncn1Cc1ccco1` was > 40 µM (inactive); that for `O=C(NC(=S)Nc1nc2c(s1)CSc1ccccc1-2)c1ccccc1` was > 40 µM (inactive). For `COc1ccccc1CN(Cc1nc2ccccc2c(=O)[nH]1)C(=O)Nc1cccc(C)c1`, the EC50 is > 40 µM (inactive). `C=CCN(CC=C)c1nc2ccccc2nc1C(C#N)C(=O)OC(C)C` (centres undefined): the EC50 is > 40 µM (inactive). In the case of `CC1(C)CC(=O)c2sc(NS(C)(=O)=O)nc2C1`, the EC50 was > 40 µM (inactive). With `CCOC(=O)CSC1=NC(=O)/C(=C/c2ccc(OC)cc2)S1`, the EC50 is > 40 µM (inactive). With `CC(C)c1ccc2occ(-c3nn[nH]n3)c(=O)c2c1`, the EC50 was > 40 µM (inactive). Take `CCOC(=O)CS(=O)(=O)c1nc(-c2ccc(F)cc2)cc(C(F)(F)F)n1`: the EC50 is > 40 µM (inactive). With `CCN(CCO)C(=O)C12CCC(C)(C(=O)C1)C2(C)C` (centres undefined), the EC50 was > 40 µM (inactive). With `O=C(Nc1cccc(Cl)c1)c1ccc2c(=O)n3c(nc2c1)CCCCC3`, the EC50 was > 40 µM (inactive). For `Cc1cc(N2C(=O)CC(Cc3ccccc3)C2=O)no1` (centres undefined), the EC50 was > 40 µM (inactive).

For `COC(=O)CCS(=O)(=O)c1nc(-c2ccccc2)cc(C(F)(F)F)n1`, the EC50 is > 40 µM (inactive). In the case of `CCC(=O)Nc1ccccc1Sc1ncnc2scc(-c3ccccc3)c12`, the EC50 was > 40 µM (inactive).

Regarding `CCc1ccc(C(=O)CN2C(=O)NC(C)(CCc3ccccc3)C2=O)cc1` (centres undefined), the EC50 was > 40 µM (inactive). The result for `CCN1CCCC1CNC(=O)COc1cc(=O)n(C)c2ccccc12` (centres undefined) reads > 40 µM (inactive). For the compound `Cc1ncc(C23CC4CC(CC(C4)C2)C3)[nH]1`, the EC50 was > 40 µM (inactive).

Turning to `O=c1[nH]c2ccccc2nc1Cc1ccccc1`, the EC50 was > 40 µM (inactive). Take `COc1ccc(C(=O)Nc2ccc(OCc3ccccc3)cc2)cc1[N+](=O)[O-]`: the EC50 was > 40 µM (inactive). As to `COCCOC(=O)/C(=C/c1ccc(OC(=O)c2ccccc2)cc1)C(C)=O`, the EC50 is > 40 µM (inactive). Take `CC(C)C(c1nnnn1Cc1ccccc1)N1CCN(Cc2ccc3c(c2)OCO3)CC1` (centres undefined): the EC50 was > 40 µM (inactive). As for `O=C(O)Cc1ccc(N=Cc2c(O)ccc3ccccc23)cc1`, the EC50 was > 40 µM (inactive). The result for `Cc1ccc(C(=O)NNC(=S)NC(=O)c2ccc(Cl)cc2)cc1` reads > 40 µM (inactive); that for `Cc1cc(C)nc(SCc2cc(=O)c(OC(=O)c3ccc(Br)o3)co2)n1`, > 40 µM (inactive); that for `C=C(C(=O)c1ccccc1)C(C)CC(=O)c1ccccc1` (centres undefined), > 40 µM (inactive). Regarding `CCCCOC(=O)CSc1nc2c(c(=O)[nH]c(=O)n2C)n1C/C=C(\C)Cl`, the EC50 is > 40 µM (inactive). With `Cc1nn(C(C)(C)C)c(OC(=O)c2ccc(Br)o2)c1Sc1ccccc1`, the EC50 is > 40 µM (inactive). The result for `COC(=O)C1=C(C(=O)OC)SC(=C2C(=S)C(C)(C)N(C(=O)C(C)C)c3ccccc32)S1` reads > 40 µM (inactive); that for `O=C(Nc1cccnc1)c1c(O)c2cccc3c2n(c1=O)CC3`, > 40 µM (inactive); that for `COc1ccc(CNC(=O)C2CCN(c3nc(OC)nc(OC)n3)CC2)cc1`, > 40 µM (inactive).

With `O=C(NCC1CCCO1)c1c(O)c2ccccc2[nH]c1=O` (centres undefined), the EC50 was > 40 µM (inactive). For `Cc1ccc(S(=O)(=O)C(C#N)c2nc3ccccc3nc2N2CCCC2)cc1` (centres undefined), the EC50 was > 40 µM (inactive). On to `Cc1cc(C)c(NC(=O)/C(=C/c2ccccc2)c2ccccc2)c(C)c1`, for which the EC50 was > 40 µM (inactive).

On to `CC(C)CN=C(NS(=O)(=O)c1ccccc1)C(Cl)(Cl)Cl`, for which the EC50 is > 40 µM (inactive). The value for `CCCCCCN1CC(C(=O)OCC)C(=O)C1=O` (centres undefined) was > 40 µM (inactive); that for `COc1cc(C(C[N+](=O)[O-])c2c(-c3ccccc3)cc3ccccn23)cc(OC)c1OC` (centres undefined) was > 40 µM (inactive); that for `CC[n+]1ccc(C[n+]2ccccc2)c2ccccc21` was > 40 µM (inactive). `Cc1ccc(S(=O)(=O)Nc2ccccc2/C=N/c2nc3ccccc3n2C(C)C)cc1`: the EC50 was > 40 µM (inactive).

With `O=C1c2ccccc2-c2onc3c(Oc4ccccc4)cc(O)c1c23`, the EC50 was > 40 µM (inactive).

Turning to `CCOc1ccc(/C=C2/C(=O)NC(=O)N(CCc3ccc(F)cc3)C2=O)cc1`, the EC50 was > 40 µM (inactive). As for `CC(C)Cn1c(=O)c(C(=O)Nc2cnccn2)c(O)c2ccccc21`, the EC50 was > 40 µM (inactive). As for `CC(C)Cc1nn2c(=O)cc(O)nc2s1`, the EC50 is > 40 µM (inactive). As for `O=C1NC(=O)N(CCC2=CCCCC2)C(=O)/C1=C\c1cccs1`, the EC50 was > 40 µM (inactive). The value for `Cc1ccc(C(=O)c2no[n+]([O-])c2C(=O)c2ccc(C)cc2)cc1` was > 40 µM (inactive); that for `CCOc1ccccc1/C=c1\sc2ncnn2c1=O` was > 40 µM (inactive); that for `CC(C)(C)C(=O)Cn1c(=N)n(Cc2ccccc2)c2ccccc21` was > 40 µM (inactive). As for `C[C@]12CC[C@@H]3c4ccc(O)cc4CC[C@H]3[C@@H]1CC[C@@H]2OC(=O)CCC(=O)O`, the EC50 was > 40 µM (inactive). As for `O=C1/C(=N/n2cnnc2)c2ccccc2N1Cc1ccccc1`, the EC50 was > 40 µM (inactive). The value for `Cc1cc(C)nc(SCc2cc(=O)c(OC(=O)c3ccco3)co2)n1` was > 40 µM (inactive). For the compound `O=C(CCc1ccccc1)NCCCN1CCOCC1`, the EC50 is > 40 µM (inactive).

Turning to `CCCCCCCC(=O)N/N=C(/C)c1c(O)cc(C)oc1=O`, the EC50 was > 40 µM (inactive).

As for `C=CCN(CC=C)S(=O)(=O)c1ccc2nc(NC(=O)C(C)C)sc2c1`, the EC50 is > 40 µM (inactive).

For the compound `O=[N+]([O-])c1cc2oc3c(c2c(C=NCc2ccncc2)c1O)CCCC3`, the EC50 is > 40 µM (inactive). For `O=S(=O)(Nc1nc2ccccc2nc1Cl)c1ccc2ccccc2c1`, the EC50 was > 40 µM (inactive). The result for `O=C1C(C2=C(O)c3ccccc3C2=O)=Nc2ccccc21` reads > 40 µM (inactive); that for `O=C1CC(c2ccc(F)cc2)CC(O)=C1C=NCCN1CCN(C(=O)Nc2ccccc2)CC1` (centres undefined), > 40 µM (inactive). The value for `CCSc1ccccc1C(=O)n1nnc2ccccc21` was > 40 µM (inactive); that for `COc1ccc(C(CNC(=O)c2cccc(Br)c2)N2CCCC2)cc1` (centres undefined) was > 40 µM (inactive).

In the case of `O=c1c2ccccc2nc(-c2cccc(Cl)c2)n1O`, the EC50 is > 40 µM (inactive). As for `COc1cc(OC)cc(-c2nc3ccccc3c(=O)n2OC(=O)c2ccccc2C)c1`, the EC50 is > 40 µM (inactive). In the case of `CCc1nnc(NC(=O)c2cccc(S(=O)(=O)N(C)c3ccccc3)c2)s1`, the EC50 was > 40 µM (inactive). Turning to `Nc1cccc2c1C(=O)N(C(=O)c1ccc(Cl)c(S(=O)(=O)N3CCCCCC3)c1)C2=O`, the EC50 is > 40 µM (inactive). As for `Cc1ccc(NC(=O)CN2CCN(CCN=CC3=C(O)CC(c4ccccc4)CC3=O)CC2)cc1` (centres undefined), the EC50 is > 40 µM (inactive). With `COc1ccccc1C(=O)Oc1cc(N)n(S(=O)(=O)c2ccc(C)cc2)n1`, the EC50 was > 40 µM (inactive). Turning to `CCCN1C(=O)/C(=C/c2ccncc2)SC1=S`, the EC50 is > 40 µM (inactive). Consider `CCCc1[nH]nc2c1C(c1ccc(Br)s1)C(C#N)=C(N)O2` (centres undefined), for which the EC50 is > 40 µM (inactive). Turning to `CS(=O)(=O)c1nc(-c2cccs2)cc(C(F)(F)F)n1`, the EC50 was > 40 µM (inactive).

Regarding `O=c1cc(O)c2c(=O)n(-c3ccccc3)c3c(c2o1)CCCCC3`, the EC50 is > 40 µM (inactive).
